The results in this text go back to patent publication US12103924B2, “Mitogen-activated protein kinase kinase (MEK) degradation compounds and methods of use” (Icahn School of Medicine at Mount Sinai, priority 2020, dated 2024).

One may read the GI50 as the concentration that inhibits growth by half. Read a high GI50 as lower sensitivity of the cells.

For one experiment, the target named is T1, MEK1 (Homo sapiens, UniProt Q02750).
T1 construct: purchased Thermo Fisher Scientific PV3303
In words: HotSpot kinase inhibition assay, MEK1. The format is biochemical. The following applies: MEK1 100 nM, ERK K52R substrate, 33P-ATP, normalized with DMSO.

The target in a further experiment is T2, MEK2 (Homo sapiens, UniProt P36507).
T2 construct: purchased Thermo Fisher Scientific PV3615
T2 sequence (P36507 whole entry): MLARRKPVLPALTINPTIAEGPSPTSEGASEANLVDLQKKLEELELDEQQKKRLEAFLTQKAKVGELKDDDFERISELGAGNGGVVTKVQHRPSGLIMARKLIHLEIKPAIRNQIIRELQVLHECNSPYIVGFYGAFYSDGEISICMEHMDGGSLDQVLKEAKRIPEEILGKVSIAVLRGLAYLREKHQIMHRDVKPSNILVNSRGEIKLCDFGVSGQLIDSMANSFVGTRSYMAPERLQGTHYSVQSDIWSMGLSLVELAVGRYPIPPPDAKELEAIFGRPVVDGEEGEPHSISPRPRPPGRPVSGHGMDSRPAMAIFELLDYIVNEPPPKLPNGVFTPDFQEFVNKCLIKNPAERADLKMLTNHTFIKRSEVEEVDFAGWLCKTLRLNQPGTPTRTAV
Description: HotSpot kinase inhibition assay, MEK2. Type of experiment: biochemical. The following applies: MEK2 150 nM, ERK K52R substrate, 33P-ATP, normalized with DMSO.

The subject of experiment [1] is MEK1/2. In words: Western blot of MEK1/2 protein levels in HT-29 cells. Type of experiment: cell-based. For orientation: Immunoblotting shows a protein as a band on a membrane.
Description: Compound concentrations are 0.3 μM, 1 μM and 3 μM.
(§3) The indicated protein levels were determined by Western blots.
(§4) The sample was centrifuged at 12,000 g for 10 min at 4° C. to get supernatant as cell lysate. Protein concentrations were quantified using Pierce rapid gold BCA protein assay kit.
For another experiment, the system named is MEK1 and MEK2 proteins. In words: Global proteome analysis of HT-29 cells. The format is cell-based, human. As for the experimental part:
[…] […] P values were calculated from the data of two technical replicates. (A) DMSO compared to CPD-031 treated samples; (B) CPD-034 compared to CPD-031 treated samples; (C) DMSO compared to CPD-034 treated samples.
Proteins outside the significance lines were labeled with pink or purple color (FDR=0.05, S0=1). P values were calculated from the data of two technical replicates.
Protein Extraction and Digestion. Cells with indicated treatments were harvested and lysed in lysis buffer (6 M guanidine hydrochloride, 100 mM Tris-HCl pH 8.0). Sonication (5 s on, 5 s off, 2×30 s) was performed to shear genome DNA. Lysate were centrifugated for 30 min at 3,500 g at 4° C. and the supernatant were transferred to a clean tube, diluted 50% with Milli-Q H2O, then precipitated by addition of cold acetone (four times the original volume), and placed at −20° C. overnight. Precipitated proteins were brought down at 20,000 g at 4° C. for 10 min, and washed with cold acetone after discarding the supernatant. The pellet was air-dried at RT for 5 min and solubilized with 50 mM Tris-HCl (PH 8.0), 8 M urea. Protein concentration was determined (BCA assay) and protein was reduced with 5 mM DTT (dithiothreitol), alkylated with 15 mM IAA (iodoacetamide) in the dark, then diluted with buffer 25 mM Tris (pH 8.0) and 1 mM CaCl2 (three times the original volume). The final urea concentration is 2 M. Trypsin was added into protein solution with 1:100 ratio (trypsin:protein), and digested 12-16 h or overnight at RT.
Mass Spectrometry Analysis. Peptides were cleaned up by C18 stage tips and the concentration was determined (Peptide assay, 23275, Thermo Fisher Scientific). The clean peptides were dissolved in 0.1% formic acid and analyzed on a Q-Exactive HF-X coupled with an Easy nanoLC 1200 (Thermo Fisher Scientific, San Jose, CA). 0.5 μg of peptides were loaded onto an Acclain PepMap RSLC C18 Column (250 mm×75 μm ID, C18, 2 μm, Thermo Fisher Scientific). […] A linear gradient of 5 to 30% buffer B over 110 min was executed at a 300 nl/min flow rate followed a ramp to 100% B in 5 min, and 15-min wash with 100% B, where buffer A was aqueous 0.1% formic acid, and buffer B was 80% acetonitrile and 0.1% formic acid.
LC-MS experiments were performed in a data-dependent mode with full MS (externally calibrated to a mass accuracy of <5 ppm and a resolution of 60,000 at m/z 200) followed by high energy collision-activated dissociation-MS/MS of the top 20 most intense ions with a resolution of 15,000 at m/z 200. High energy collision-activated dissociation-MS/MS was used to dissociate peptides at a normalized collision energy of 27 eV in the presence of nitrogen bath gas atoms. Dynamic exclusion was 30.0 seconds. Each sample was subjected to two technical LC-MS replicates.
MS Data Analysis. Mass spectra processing and peptide identification were performed on the Andromeda search engine in MaxQuant software (Version 1.6.0.16) against the human UniProt database (UP000005640). All searches were conducted with a defined modification of cysteine carbamidomethylation, with methionine oxidation and protein amino-terminal acetylation as dynamic modifications. Peptides were confidently identified using a target-decoy approach with a peptide false discovery rate (FDR) of 1% and a protein FDR of 1%. A minimum peptide length of 7 amino acids was required, maximally two missed cleavages were allowed, initial mass deviation for precursor ion was up to 7 ppm, and the maximum allowed mass deviation for fragment ions was 0.5 Da. Data processing and statistical analysis were performed on Perseus (Version 1.6.0.7). Protein quantitation was performed on duplicate runs, and a two-sample t-test statistics was used to report statistically significant expression fold-changes.

For experiment [2], the system named is HT-29 cells. Description: MTT cell viability assay, HT-29. Type of experiment: cell-based. The following applies: Homo sapiens, 72 h, MTT assay, 3 d treatment, serial dilutions.
For experiment [3], the system named is HT-29 cells. Description: WST-8 cell viability assay, HT-29. The format is cell-based. The following applies: WST-8 3 d serial dilutions, clonogenic assay 10 d. As for the experimental part: (§1) Cells were fixed and stained by crystal violet.
(§2) Cells (2000 cells per well) were seeded into 96-well microplates. After 20 h, cells were treated with 0.1% DMSO or indicated serial dilutions of compounds in duplicate or triplicate for 3 days. Cell viability was tested using MTT (M6494, Thermo Fisher Scientific) or WST-8 reagent (CK04, Dojindo). Briefly, 12 mM MTT was prepared in PBS or WST-8 reagent was warmed up to room temperature. 20 μL MTT or CCK-8 was then added to each well and the plates were kept in incubator at 37° C. for 3 h in the dark. For the WST-8 assay, signal was obtained after the incubation. For the MTT assay, cell medium was replaced with 200 μL of DMSO after the incubation, and then cell plates were kept at 37° C. for another 30 min. Absorbance signals for MTT and WST-8 were read at 540 nm and 450 nm respectively, with 690 nm as reference performed with Infinite F PLEX plate reader (TECAN, Morrisville, NC, USA). GI50 values were analyzed using GraphPad Prism 8 from the data of at least three independent experiments.

The test system of a further experiment is SK-MEL-28 cells. Description: WST-8 cell viability assay, SK-MEL-28. The format is cell-based. The following applies: WST-8 3 d serial dilutions. The protocol: as §1, §2
Experiment [4] has as its system pMEK and pERK. Description: Western blot of MEK and ERK phosphorylation in HT-29 cells. Type of experiment: cell-based. The following applies: HT-29 cells.
Experiment [5] has as its system MEK1/2. In words: Western blot of MEK1/2 protein levels in SK-MEL-28 cells. The following applies: SK-MEL-28 cells.
Description: as §3, §4
Experiment [6] has as its system pMEK and pERK. In words: Western blot of MEK and ERK phosphorylation in SK-MEL-28 cells. The following applies: SK-MEL-28 cells.
The mark [7] stands for this setting: HT-29 cells, 24 h, 0.3 μM, 1 μM and 3 μM, western blot normalized with α-tubulin.
Setting [8] is: 0.1 μM or 0.3 μM, harvested at indicated time points.
Where [9] appears, read: serial dilution, 24 h, western blot.
Setting [10] is: 8 h, 0.1 μM CPD-038 or CPD-052, 0.3 μM CPD-051 or CPD-097, versus 0.1% DMSO.

T1 sequence (Q02750 whole entry): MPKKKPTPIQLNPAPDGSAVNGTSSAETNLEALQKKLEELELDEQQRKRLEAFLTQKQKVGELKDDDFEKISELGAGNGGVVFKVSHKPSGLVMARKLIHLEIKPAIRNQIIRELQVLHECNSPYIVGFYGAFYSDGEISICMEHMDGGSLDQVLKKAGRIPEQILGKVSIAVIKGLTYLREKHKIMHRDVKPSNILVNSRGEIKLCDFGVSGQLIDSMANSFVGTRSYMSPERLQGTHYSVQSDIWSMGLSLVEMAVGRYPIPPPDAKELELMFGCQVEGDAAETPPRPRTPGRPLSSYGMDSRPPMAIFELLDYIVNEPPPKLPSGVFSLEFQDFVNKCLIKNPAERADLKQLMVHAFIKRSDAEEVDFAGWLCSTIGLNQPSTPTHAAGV

As to `Cc1ncsc1-c1ccc([C@H](C)NC(=O)C2CC(O)CN2C(=O)[C@@H](NC(=O)CCCCCCCCCCNCCCONC(=O)c2ccc(F)c(F)c2Nc2ccc(I)cc2F)C(C)(C)C)cc1` (stereo in doubt) [CPD-034, (2R,4S)-1-((S)-20-(tert-butyl)-1-(3,4-difluoro-2-((2-fluoro-4-iodophenyl)amino)phenyl)-1,18-dioxo-3-oxa-2,7,19-triazahenicosan-21-oyl)-4-hydroxy-N—((S)-1-(4-(4-methylthiazol-5-yl)phenyl)ethyl)pyrrolidine-2-carboxamide], the MEK1 kinase activity entry at MEK1 is “inhibited”. The MEK2 kinase activity entry on MEK2 is given as “inhibited”. Moreover, the “MEK1 and MEK2 protein levels” value in the experiment on MEK1/2 [1] (HT-29 cells, 0.1, 0.3, or 1 μM, 24 h) is “not”. Further, the “protein levels in the global proteomic study” value with MEK1 and MEK2 proteins (10 h, 0.1 μM, versus 0.1% DMSO) was “did not significantly modulate”.
On to `O=C1CCC(N2C(=O)c3ccc(NCCCCCCCCNCCCONC(=O)c4ccc(F)c(F)c4Nc4ccc(I)cc4F)cc3C2=O)C(=O)N1` (stereo not shown) [CPD-046, N-(3-((8-((2-(2,6-dioxopiperidin-3-yl)-1,3-dioxoisoindolin-5-yl)amino)octyl)amino)propoxy)-3,4-difluoro-2-((2-fluoro-4-iodophenyl)amino)benzamide], for which, in the experiment on HT-29 cells [2], the GI50 was found to be 0.3 ± 0.1 µM. For the same molecule, the “MEK1 and MEK2 protein levels” value in the experiment on MEK1/2 [1] (setting [7]) is recorded as “significantly degraded”.
For `O=C1CCC(N2C(=O)c3ccc(NCCOCCOCCOCCOCCNCCCONC(=O)c4ccc(F)c(F)c4Nc4ccc(I)cc4F)cc3C2=O)C(=O)N1` (stereo not shown) [CPD-050, N-((1-((2-(2,6-dioxopiperidin-3-yl)-1,3-dioxoisoindolin-5-yl)amino)-3,6,9,12-tetraoxa-15-azaoctadecan-18-yl)oxy)-3,4-difluoro-2-((2-fluoro-4-iodophenyl)amino)benzamide], in that order: 0.5 ± 0.06 µM and “significantly degraded”.
As for `O=C1CCC(N2C(=O)c3ccc(NCCOCCOCCOCCOCCOCCNCCCONC(=O)c4ccc(F)c(F)c4Nc4ccc(I)cc4F)cc3C2=O)C(=O)N1` (stereo not shown) [CPD-051, N-((1-((2-(2,6-dioxopiperidin-3-yl)-1,3-dioxoisoindolin-5-yl)amino)-3,6,9,12,15-pentaoxa-18-azahenicosan-21-yl)oxy)-3,4-difluoro-2-((2-fluoro-4-iodophenyl)amino)benzamide], the growth of cells entry with HT-29 cells [3] and in the experiment with SK-MEL-28 cells was “significantly suppressed” in each case. For the same molecule, the “MEK1 and MEK2 protein levels, time-dependent” value in the experiment with MEK1/2 [1] (HT-29 cells, 0.1 μM or 0.3 μM, harvested at indicated time points) was “degrade”; in the experiment with MEK1/2 [5] (setting [8]) it was “degrade”. In the experiment with MEK1/2 [1] (setting [7]), the “MEK1 and MEK2 protein levels” value is “significantly degraded”. Besides, the “MEK1 and MEK2 protein levels, concentration-dependent” value in the experiment with MEK1/2 [1] (HT-29 cells, serial dilution, 24 h, western blot) is “concentration-dependently reduced”; in the experiment with MEK1/2 [5] (setting [9]), “concentration-dependently reduced”. The “phosphorylation of MEK and ERK / pERK signaling, time-dependent” value with pMEK and pERK [4] (setting [8]) was “inhibit”; with pMEK and pERK [6] (setting [8]), “inhibit”. Moreover, the “phosphorylation of MEK and ERK proteins, concentration-dependent” value in the experiment on pMEK and pERK [4] (setting [9]) is “inhibited”; in the experiment with pMEK and pERK [6] (setting [9]) it was “inhibited”. The “protein levels in the global proteomic study” value in the experiment with MEK1 and MEK2 proteins (setting [10]) is “selectively degraded”.
For `Cc1ncsc1-c1ccc([C@H](C)NC(=O)[C@H]2C[C@H](O)CN2C(=O)[C@@H](NC(=O)CCCCCCCCCCCNCCCCONC(=O)c2ccc(F)c(F)c2Nc2ccc(I)cc2F)C(C)(C)C)cc1` [CPD-052, (2R,4S)-1-((S)-22-(tert-butyl)-1-(3,4-difluoro-2-((2-fluoro-4-iodophenyl)amino)phenyl)-1,20-dioxo-3-oxa-2,8,21-triazatricosan-23-oyl)-4-hydroxy-N-((S)-1-(4-(4-methylthiazol-5-yl)phenyl)ethyl)pyrrolidine-2-carboxamide], the growth of cells result in the experiment with HT-29 cells [3] and in the experiment on SK-MEL-28 cells was “did not significantly suppress” throughout. Moreover, the “protein levels in the global proteomic study” value in the experiment on MEK1 and MEK2 proteins (setting [10]) was “did not significantly modulate”.
Regarding `Cc1ncsc1-c1ccc([C@H](C)NC(=O)[C@H]2C[C@H](O)CN2C(=O)[C@@H](NC(=O)CCCCCCCCCCN(C)CCCONC(=O)c2ccc(F)c(F)c2Nc2ccc(I)cc2F)C(C)(C)C)cc1` [CPD-053, (2R,4S)-1-((S)-20-(tert-butyl)-1-(3,4-difluoro-2-((2-fluoro-4-iodophenyl)amino)phenyl)-7-methyl-1,18-dioxo-3-oxa-2,7,19-triazahenicosan-21-oyl)-4-hydroxy-N-((S)-1-(4-(4-methylthiazol-5-yl)phenyl)ethyl)pyrrolidine-2-carboxamide], the growth of cells entry in the experiment on HT-29 cells [3] and in the experiment with SK-MEL-28 cells was “did not significantly suppress” in each case.
On to `CN1C(=O)CCC(N2C(=O)c3ccc(NCCOCCOCCOCCOCCOCCNCCCONC(=O)c4ccc(F)c(F)c4Nc4ccc(I)cc4F)cc3C2=O)C1=O` (stereo not shown) [CPD-097, 3,4-difluoro-2-((2-fluoro-4-iodophenyl)amino)-N-((1-((2-(1-methyl-2,6-dioxopiperidin-3-yl)-1,3-dioxoisoindolin-5-yl)amino)-3,6,9,12,15-pentaoxa-18-azahenicosan-21-yl)oxy)benzamide], for which the growth of cells entry with HT-29 cells [3] and in the experiment with SK-MEL-28 cells was “did not significantly suppress” each time. Also, the “protein levels in the global proteomic study” value in the experiment with MEK1 and MEK2 proteins (setting [10]) was “did not significantly modulate”.
